Test results published in patent publication EP1310247A1 (priority 1997, dated 1999).

Legend:
[1] = tested on: Male Swiss-Webster mice; assay: Locomotor activity: stimulant and depressant effects (horizontal distance); type: in vivo
[2] = tested on: Male Swiss-Webster mice; assay: H1 antihistamine (triprolidine) interaction study, locomotor activity; type: in vivo; conditions: pretreatment with 0.01, 0.1, or 1.0 mg/kg triprolidine 20 minutes before
Procedure: H1 antihistamine interaction studies. […] The mice were then immediately placed in the activity-testing apparatus for a 2 hour session. […] Eight mice were tested for each triprolidine/sympathomimetic combination.
The dose-effect data were considered in 1-way analysis of variance, and planned individual comparisons were conducted between each dose and the saline control group.

[3] = tested on: dogs; assay: Dosage required to raise mean arterial pressure (MAP) by 10%; type: in vivo; conditions: experimentally determined
Procedure: Nasal airway pressure was measured using a Validyne pressure transducer (Validyne Engineering, Northridge, CA) with a 2.25 cm H2O range membrane connected to a multipen recorder (Grass Instruments, Quincy, MA). Air was passed through an in-line direct measure flow meter (Gilmont Instruments, Barrington, IL) connected to the nasal opening cannula. Pressure was measured in the line with a constant flow rate (150 ml/min) of air. Drugs were directly injected into the jugular vein using a 30 gauge needle. All injections were of a constant 0.1 ml volume. In the congestion challenged groups congestion was achieved by an intranasal administration of histamine (50 mM, 0.02 ml/nostril). The histamine was expelled after 2 minutes with a short nasal cannula airflow and subsequent enantiomeric drug doses were directly injected into the jugular vein. The dosage chosen for each drug was the amount needed to increase the mean arterial pressure (MAP) of the animal by 10%; this dosage served as the "100%" dose for the initial nasal airway studies. […] The dosage required for rats was calculated by proportionately adjusting the experimentally determined dog dosage to account for the lesser weight of the rats.

[4] = tested on: Sprague Dawley rats; assay: Nasal airway pressure / resistance in anesthetized rats, normal and histamine-challenged; type: in vivo; conditions: 75% dose
[5] = tested on: Sprague Dawley rats; assay: Mean arterial blood pressure after 75% dose in rats; conditions: compared with (+)-ephedrine
[6] = tested on: α2-Receptor; type: binding, mongrel dogs

## Cc1ccc(/C(=C\CN2CCCC2)c2ccccn2)cc1 [triprolidine]
[1]; mouse, in vivo
  effect on horizontal distance: failed to affect horizontal distance
[1]; triprolidine alone, 50 and 100 mg/kg, beginning within 10 minutes, lasting 30 to 40 minutes
  effect on locomotion: Dose-dependent depression of locomotion

## CN[C@H](C)[C@@H](O)c1ccccc1 [(+)-ephedrine]
[2]
  interaction with triprolidine pretreatment (horizontal movement): no drug interaction is apparent
[3]
  Dosage required to raise MAP by 10%, Dog: 200 µg/kg
[4]
  effect on normal airway decongestion: the same efficacious effect on normal airway decongestion

## CN[C@@H](C)[C@@H](O)c1ccccc1 [(+)-pseudoephedrine]
[2]
  interaction with triprolidine pretreatment (horizontal movement): increased horizontal movement is observed
[3]
  Dosage required to raise MAP by 10%, Dog: 200 µg/kg

## CN[C@@H](C)[C@H](O)c1ccccc1 [(-)-ephedrine]
[2]
  interaction with triprolidine pretreatment (horizontal movement): increased horizontal movement is observed
[3]
  Dosage required to raise MAP by 10%, Dog: 100 µg/kg
[4]
  effect on normal airway decongestion: the same efficacious effect on normal airway decongestion
[5]
  increase in blood pressure: slightly greater (though significant) increase in blood pressure than (+)-ephedrine

## CC(N)Cc1ccccc1 (single isomer, unassigned; (+)) [(+)-amphetamine]
[1]; 2-hour session after i.p. injection, result in words
  Locomotor stimulant effects, time course: dose- and time-dependent increase in the distance traversed

## CNC[C@H](O)c1ccc(O)c(O)c1 [Epinephrine]
[6]
  displacement of bound p-iodoclonidine: easily displaced all bound p-iodoclonidine

## CNC[C@H](O)c1cccc(O)c1 [(-)-phenylephrine]
[3]
  Dosage required to raise MAP by 10%, Dog: 10 µg/kg
